Assay results reported in patent US6737383B1, “Herbicidal oxadiazolidines” (priority 1999, dated 2004).

What was measured:
bedstraw = assay: Test B pre/postemergence bedstraw; format: in vivo, Galium aparine
Summary of the method: (§1)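 Test chemicals in a non-phytotoxic solvent mixture with surfactant were sprayed preemergence onto planted seeds and postemergence onto plants 2 to 18 cm tall (1- to 4-leaf stage). After twelve to sixteen days in a greenhouse, injury was visually rated against untreated controls from 0 (no effect) to 10 (complete control).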

blackgrass = assay: Test B pre/postemergence blackgrass; format: in vivo, Alopecurus myosuroides
Summary of the method: as §1

surinam grass = assay: Test B pre/postemergence surinam grass; format: in vivo, Brachiaria decumbens
Summary of the method: as §1

cocklebur = assay: Test B pre/postemergence cocklebur; format: in vivo, Xanthium strumarium
Summary of the method: as §1

corn = assay: Test B pre/postemergence corn; format: in vivo, Zea mays
Summary of the method: as §1

crabgrass = assay: Test B pre/postemergence crabgrass; format: in vivo, Digitaria sanguinalis
Summary of the method: as §1

giant foxtail = assay: Test B pre/postemergence giant foxtail; format: in vivo, Setaria faberii
Summary of the method: as §1

morningglory = assay: Test B pre/postemergence morningglory; format: in vivo, Ipomoea hederacea
Summary of the method: as §1

pigweed = assay: Test B pre/postemergence pigweed; format: in vivo, Amaranthus retroflexus
Summary of the method: as §1

rape = assay: Test B pre/postemergence rape; format: in vivo, Brassica napus
Summary of the method: as §1

soybean = assay: Test B pre/postemergence soybean; format: in vivo, Glycine max
Summary of the method: as §1

sugar beet = assay: Test B pre/postemergence sugar beet; format: in vivo, Beta vulgaris
Summary of the method: as §1

velvetleaf = assay: Test B pre/postemergence velvetleaf; format: in vivo, Abutilon theophrasti
Summary of the method: as §1

wheat = assay: Test B pre/postemergence wheat; format: in vivo, Triticum aestivum
Summary of the method: as §1

wild oat = assay: Test B pre/postemergence wild oat; format: in vivo, Avena fatua
Summary of the method: as §1

purple nutsedge = assay: Test B pre/postemergence purple nutsedge; format: in vivo, Cyperus rotundus
Summary of the method: as §1

[1] = Postemergence, Rate 125 g/ha, scale of 0 to 10 where 0 is no effect and 10 is complete control
[2] = Preemergence, Rate 62 g/ha, scale of 0 to 10 where 0 is no effect and 10 is complete control
[3] = Preemergence, Rate 125 g/ha, 0 is no effect, 10 is complete control
[4] = Preemergence, Rate 250 g/ha, scale 0 to 10, 0 is no effect, 10 is complete control
[5] = Preemergence, Rate 500 g/ha, scale 0 to 10 (0 no effect, 10 complete control)
[6] = Rate 62 g/ha, Postemergence, scale of 0 to 10 where 0 is no effect and 10 is complete control
[7] = Rate 250 g/ha, Postemergence, scale 0 to 10, 0 is no effect, 10 is complete control
[8] = Rate 500 g/ha, Postemergence, scale 0 to 10

CC(C)N(C(=O)n1oc(=O)n([C@H](C)c2ccccc2)c1=O)c1ccc(Cl)cc1 [Compound 178]
Bedstraw plant response rating (bedstraw; [1]): 0 | Bedstraw plant response rating (bedstraw; [2]): 0 | Bedstraw plant response rating (0 to 10 scale) (bedstraw; [3]): 0 | Bedstraw plant response rating (bedstraw; [4]): 0 | Bedstraw plant response rating (bedstraw; [5]): 0 | Bedstraw plant response rating (bedstraw; [6]): 0 | Plant response rating, Bedstraw (bedstraw; [7]): 0 | Bedstraw plant response rating (bedstraw; [8]): 0 | Blackgrass plant response rating (blackgrass; [1]): 0 | Blackgrass plant response rating (blackgrass; [2]): 0 | Blackgrass plant response rating (0 to 10 scale) (blackgrass; [3]): 0 | Blackgrass plant response rating (blackgrass; [4]): 0 | Blackgrass plant response rating (blackgrass; [5]): 3 | Blackgrass plant response rating (blackgrass; [6]): 0 | Plant response rating, Blackgrass (blackgrass; [7]): 0 | B. signalgrass plant response rating (surinam grass; [1]): 0 | B. signalgrass plant response rating (surinam grass; [2]): 6 | B. signalgrass plant response rating (0 to 10 scale) (surinam grass; [3]): 7 | B. signalgrass plant response rating (surinam grass; [4]): 8 | B. signalgrass plant response rating (surinam grass; [5]): 9 | B. signalgrass plant response rating (surinam grass; [6]): 0 | Plant response rating, B. signalgrass (surinam grass; [7]): 0 | B. signalgrass plant response rating (surinam grass; Rate 500 g/ha, Postemergence, scale 0 to 10, 0 no effect, 10 complete control): 2 | Cocklebur plant response rating (cocklebur; [1]): 0 | Cocklebur plant response rating (cocklebur; [2]): 0 | Cocklebur plant response rating (0 to 10 scale) (cocklebur; [3]): 0 | Cocklebur plant response rating (cocklebur; [4]): 0 | Cocklebur plant response rating (cocklebur; [5]): 0 | Cocklebur plant response rating (cocklebur; [6]): 0 | Plant response rating, Cocklebur (cocklebur; [7]): 0 | Cocklebur plant response rating (cocklebur; [8]): 0 | Corn plant response rating (corn; [1]): 0 | Corn plant response rating (corn; [2]): 0 | Corn plant response rating (0 to 10 scale) (corn; [3]): 0 | Corn plant response rating (corn; [4]): 0 | Corn plant response rating (corn; [5]): 0 | Corn plant response rating (corn; [6]): 0 | Plant response rating, Corn (corn; [7]): 0 | Corn plant response rating (corn; [8]): 0 | Crabgrass plant response rating (crabgrass; [1]): 0 | Crabgrass plant response rating (crabgrass; [2]): 0 | Crabgrass plant response rating (0 to 10 scale) (crabgrass; [3]): 2 | Crabgrass plant response rating (crabgrass; [4]): 8 | Crabgrass plant response rating (crabgrass; [5]): 9 | Crabgrass plant response rating (crabgrass; [6]): 0 | Plant response rating, Crabgrass (crabgrass; [7]): 0 | Crabgrass plant response rating (crabgrass; [8]): 2 | Giant foxtail plant response rating (giant foxtail; [1]): 0 | Giant foxtail plant response rating (giant foxtail; [2]): 4 | Giant foxtail plant response rating (0 to 10 scale) (giant foxtail; [3]): 4 | Giant foxtail plant response rating (giant foxtail; [4]): 8 | Giant foxtail plant response rating (giant foxtail; [5]): 9 | Giant foxtail plant response rating (giant foxtail; [6]): 0 | Plant response rating, Giant foxtail (giant foxtail; [7]): 0 | Giant foxtail plant response rating (giant foxtail; [8]): 2 | Morningglory plant response rating (morningglory; [1]): 2 | Morningglory plant response rating (morningglory; [2]): 0 | Morningglory plant response rating (0 to 10 scale) (morningglory; [3]): 0 | Morningglory plant response rating (morningglory; [4]): 0 | Morningglory plant response rating (morningglory; [5]): 0 | Morningglory plant response rating (morningglory; [6]): 2 | Plant response rating, Morningglory (morningglory; [7]): 2 | Morningglory plant response rating (morningglory; [8]): 3 | Redroot pigweed plant response rating (pigweed; [1]): 7 | Redroot pigweed plant response rating (pigweed; [2]): 0 | Redroot pigweed plant response rating (0 to 10 scale) (pigweed; [3]): 0 | Redroot pigweed plant response rating (pigweed; [4]): 6 | Redroot pigweed plant response rating (pigweed; [5]): 10 | Redroot pigweed plant response rating (pigweed; [6]): 0 | Redroot pigweed plant response rating (pigweed; [8]): 7 | Rape plant response rating (rape; [1]): 0 | Rape plant response rating (rape; [2]): 0 | Rape plant response rating (0 to 10 scale) (rape; [3]): 0 | Rape plant response rating (rape; [4]): 0 | Rape plant response rating (rape; [5]): 0 | Rape plant response rating (rape; [6]): 0 | Plant response rating, Rape (rape; [7]): 0 | Rape plant response rating (rape; [8]): 0 | Soybean plant response rating (soybean; [1]): 1 | Soybean plant response rating (soybean; [2]): 0 | Soybean plant response rating (0 to 10 scale) (soybean; [3]): 0 | Soybean plant response rating (soybean; [4]): 0 | Soybean plant response rating (soybean; [5]): 0 | Soybean plant response rating (soybean; [6]): 1 | Plant response rating, Soybean (soybean; [7]): 2 | Soybean plant response rating (soybean; [8]): 2 | Sugarbeets plant response rating (sugar beet; [1]): 0 | Sugarbeets plant response rating (sugar beet; [2]): 0 | Sugarbeets plant response rating (0 to 10 scale) (sugar beet; [3]): 0 | Sugarbeets plant response rating (sugar beet; [4]): 0 | Sugarbeets plant response rating (sugar beet; [5]): 0 | Sugarbeets plant response rating (sugar beet; [6]): 0 | Plant response rating, Sugarbeets (sugar beet; [7]): 0 | Sugarbeets plant response rating (sugar beet; [8]): 0 | Velvetleaf plant response rating (velvetleaf; [2]): 0 | Velvetleaf plant response rating (0 to 10 scale) (velvetleaf; [3]): 0 | Velvetleaf plant response rating (velvetleaf; [4]): 0 | Velvetleaf plant response rating (velvetleaf; [5]): 0 | Plant response rating, Velvetleaf (velvetleaf; [7]): 0 | Velvetleaf plant response rating (velvetleaf; [8]): 0 | Wheat plant response rating (wheat; [2]): 0 | Wheat plant response rating (0 to 10 scale) (wheat; [3]): 0 | Wheat plant response rating (wheat; [4]): 0 | Wheat plant response rating (wheat; [5]): 0 | Plant response rating, Wheat (wheat; [7]): 0 | Wheat plant response rating (wheat; [8]): 2 | Wild oats plant response rating (wild oat; [2]): 0 | Wild oats plant response rating (0 to 10 scale) (wild oat; [3]): 0 | Wild oats plant response rating (wild oat; [4]): 0 | Wild oats plant response rating (wild oat; [5]): 3 | Plant response rating, Wild oats (wild oat; [7]): 0 | Wild oats plant response rating (wild oat; [8]): 0 | Nutsedge plant response rating (purple nutsedge; [1]): 0 | Nutsedge plant response rating (purple nutsedge; [2]): 0 | Nutsedge plant response rating (0 to 10 scale) (purple nutsedge; [3]): 0 | Nutsedge plant response rating (purple nutsedge; [4]): 0 | Nutsedge plant response rating (purple nutsedge; [5]): 0 | Nutsedge plant response rating (purple nutsedge; [6]): 0 | Plant response rating, Nutsedge (purple nutsedge; [7]): 0 | Nutsedge plant response rating (purple nutsedge; [8]): 0
